Experimental data as given in patent US10189841B2, “Purinones as ubiquitin-specific protease 1 inhibitors” (Forma Therapeutics, Inc., priority 2015, dated 2019).

The molecules below were run against USP1 (construct USP1 (I-785, GG670, 671AA)/UAF1 (I-677)-Flag) (Homo sapiens (Human), UniProt O94782, G670A/G671A) (assay: Ubiquitin-Rhodamine 110 assay for USP1 activity). Settings: USP1/UAF1 25 pM, Ub-Rh110 25 nM, 30 min preincubation.
Chain of USP1 (construct USP1 (I-785, GG670, 671AA)/UAF1 (I-677)-Flag) (O94782 whole entry G670A/G671A): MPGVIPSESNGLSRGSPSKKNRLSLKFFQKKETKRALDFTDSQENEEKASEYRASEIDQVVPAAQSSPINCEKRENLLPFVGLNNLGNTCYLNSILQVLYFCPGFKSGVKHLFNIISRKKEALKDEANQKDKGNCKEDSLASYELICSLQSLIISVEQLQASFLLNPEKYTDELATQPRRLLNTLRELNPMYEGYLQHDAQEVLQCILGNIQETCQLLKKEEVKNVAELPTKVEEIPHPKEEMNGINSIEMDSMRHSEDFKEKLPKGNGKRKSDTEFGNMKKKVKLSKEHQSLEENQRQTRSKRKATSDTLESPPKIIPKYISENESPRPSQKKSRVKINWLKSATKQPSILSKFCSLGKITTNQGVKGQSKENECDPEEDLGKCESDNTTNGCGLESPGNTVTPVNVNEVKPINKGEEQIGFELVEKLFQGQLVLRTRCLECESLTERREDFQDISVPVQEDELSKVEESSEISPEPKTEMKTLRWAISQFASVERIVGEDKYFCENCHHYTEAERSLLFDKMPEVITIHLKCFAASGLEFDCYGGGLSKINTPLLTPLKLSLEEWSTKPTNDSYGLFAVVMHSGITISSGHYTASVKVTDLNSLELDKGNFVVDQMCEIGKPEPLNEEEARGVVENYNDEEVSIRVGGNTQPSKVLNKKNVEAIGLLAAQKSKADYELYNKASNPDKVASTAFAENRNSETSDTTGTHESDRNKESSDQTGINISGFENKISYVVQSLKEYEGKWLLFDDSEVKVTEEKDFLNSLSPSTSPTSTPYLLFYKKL
Chain of USP1 (construct USP1 (I-785, GG670, 671AA)/UAF1 (I-677)-Flag) (Q8TAF3 whole entry partner): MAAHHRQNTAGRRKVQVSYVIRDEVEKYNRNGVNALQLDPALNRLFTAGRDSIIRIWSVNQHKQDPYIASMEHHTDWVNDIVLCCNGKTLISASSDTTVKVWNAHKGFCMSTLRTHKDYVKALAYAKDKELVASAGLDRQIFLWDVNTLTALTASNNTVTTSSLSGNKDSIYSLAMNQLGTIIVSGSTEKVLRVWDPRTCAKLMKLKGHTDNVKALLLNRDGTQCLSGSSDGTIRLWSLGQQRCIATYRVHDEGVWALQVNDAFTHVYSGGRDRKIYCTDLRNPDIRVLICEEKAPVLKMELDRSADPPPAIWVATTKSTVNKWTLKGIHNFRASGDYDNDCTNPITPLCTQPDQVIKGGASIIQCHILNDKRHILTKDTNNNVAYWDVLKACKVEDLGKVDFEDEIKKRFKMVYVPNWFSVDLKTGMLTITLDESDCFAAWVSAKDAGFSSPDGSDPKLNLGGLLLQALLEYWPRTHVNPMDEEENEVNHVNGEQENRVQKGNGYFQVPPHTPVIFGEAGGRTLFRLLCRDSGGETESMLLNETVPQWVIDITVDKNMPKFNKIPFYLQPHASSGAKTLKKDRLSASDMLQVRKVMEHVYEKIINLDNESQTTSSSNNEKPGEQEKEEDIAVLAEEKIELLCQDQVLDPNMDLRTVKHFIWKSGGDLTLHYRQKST
Assay type: biochemical
How it was run: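 Two formats with the USP1/UAF1 complex and 25 nM ubiquitin-rhodamine 110 in pH 8.0 Tris buffer with calcium, glutathione and detergent. Single-point screening used 10 µM, 100 pM enzyme and 45 min. Inhibition was set against no-enzyme and DMSO wells.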
`CC(C)c1ccccc1-c1ncc2[nH]c(=O)n(Cc3ccc(-n4cc(-c5ccccn5)nn4)cc3)c2n1` [Compound I-349, 2-(2-isopropylphenyl)-9-(4-(4-(pyridin-2-yl)-1H-1,2,3-triazol-1-yl)benzyl)-7,9-dihydro-8H-purin-8-one] gave an IC50 of 0.2 to 2 µM.
Molecule `CC(C)c1ccccc1-c1ncc2[nH]c(=O)n(Cc3ccc(-n4cc(CS(C)(=O)=O)nn4)cc3)c2n1` [Compound I-350, 2-(2-isopropylphenyl)-9-(4-(4-((methylsulfonyl)methyl)-1H-1,2,3-triazol-1-yl)benzyl)-7,9-dihydro-8H-purin-8-one] has an IC50 greater than 2 µM.
In the case of `CNC(=O)c1ccc(Cn2c(=O)[nH]c3cnc(-c4ccccc4C(C)C)nc32)cc1` [Compound I-351, 4-((2-(2-isopropylphenyl)-8-oxo-7,8-dihydro-9H-purin-9-yl)methyl)-N-methylbenzamide], the IC50 is reported as 0.05 to 0.2 µM.
`COCCNC(=O)c1ccc(Cn2c(=O)[nH]c3cnc(-c4ccccc4C(C)C)nc32)cc1` [Compound I-352, 4-((2-(2-isopropylphenyl)-8-oxo-7,8-dihydro-9H-purin-9-yl)methyl)-N-(2-methoxyethyl)benzamide] showed an IC50 of 0.2 to 2 µM.
Work on `CC(C)c1ccccc1-c1ncc2[nH]c(=O)n(Cc3ccc(C(=O)NC4CC4)cc3)c2n1` [Compound I-353, N-cyclopropyl-4-((2-(2-isopropylphenyl)-8-oxo-7,8-dihydro-9H-purin-9-yl)methyl)benzamide] yielded an IC50 of 0.05 to 0.2 µM.
Molecule `CC(C)c1ccccc1-c1ncc2[nH]c(=O)n(Cc3ccc(C(=O)NCc4ccc(F)cc4)cc3)c2n1` [Compound I-354, N-(4-fluorobenzyl)-4-((2-(2-isopropylphenyl)-8-oxo-7,8-dihydro-9H-purin-9-yl)methyl)benzamide] has an IC50 of 0.05 to 0.2 µM.
Work on `CC(C)c1ccccc1-c1ncc2[nH]c(=O)n(Cc3ccc(C(=O)N(C)C)cc3)c2n1` [Compound I-355, 4-((2-(2-isopropylphenyl)-8-oxo-7,8-dihydro-9H-purin-9-yl)methyl)-N,N-dimethylbenzamide] yielded an IC50 of less than 0.05 µM.
`CC(C)NC(=O)c1ccc(Cn2c(=O)[nH]c3cnc(-c4ccccc4C(C)C)nc32)cc1` [Compound I-356, N-isopropyl-4-((2-(2-isopropylphenyl)-8-oxo-7,8-dihydro-9H-purin-9-yl)methyl)benzamide] gave an IC50 of less than 0.05 µM.
In the case of `CC(C)CNC(=O)c1ccc(Cn2c(=O)[nH]c3cnc(-c4ccccc4C(C)C)nc32)cc1` [Compound I-357, N-isobutyl-4-((2-(2-isopropylphenyl)-8-oxo-7,8-dihydro-9H-purin-9-yl)methyl)benzamide], the IC50 is reported as 0.05 to 0.2 µM.
`CC(C)c1ccccc1-c1ncc2[nH]c(=O)n(Cc3ccc(C(=O)NC4CCCC4)cc3)c2n1` [Compound I-358, N-cyclopentyl-4-((2-(2-isopropylphenyl)-8-oxo-7,8-dihydro-9H-purin-9-yl)methyl)benzamide] showed an IC50 of 0.05 to 0.2 µM.
With `CC(C)c1ccccc1-c1ncc2[nH]c(=O)n(Cc3ccc(C(=O)NC4(c5ccccc5)CCCC4)cc3)c2n1` [Compound I-359, 4-((2-(2-isopropylphenyl)-8-oxo-7,8-dihydro-9H-purin-9-yl)methyl)-N-(1-phenylcyclopentyl)benzamide] the IC50 was 0.05 to 0.2 µM.
`CC(C)c1ccccc1-c1ncc2[nH]c(=O)n(Cc3ccc(C(=O)NCc4nccn4C)cc3)c2n1` [Compound I-360, 4-((2-(2-isopropylphenyl)-8-oxo-7,8-dihydro-9H-purin-9-yl)methyl)-N-((1-methyl-1H-imidazol-2-yl)methyl)benzamide] gave an IC50 of 0.2 to 2 µM.
Work on `CC(C)c1ccccc1-c1ncc2[nH]c(=O)n(Cc3ccc(C(=O)NCc4cnn(C)c4)cc3)c2n1` [Compound I-361, 4-((2-(2-isopropylphenyl)-8-oxo-7,8-dihydro-9H-purin-9-yl)methyl)-N-((1-methyl-1H-pyrazol-4-yl)methyl)benzamide] yielded an IC50 of 0.2 to 2 µM.
Work on `CCN(CC)C(=O)c1ccc(Cn2c(=O)[nH]c3cnc(-c4ccccc4C(C)C)nc32)cc1` [Compound I-362, N,N-diethyl-4-((2-(2-isopropylphenyl)-8-oxo-7,8-dihydro-9H-purin-9-yl)methyl)benzamide] yielded an IC50 of less than 0.05 µM.
Work on `CC(C)c1ccccc1-c1ncc2[nH]c(=O)n(Cc3ccc(C(=O)N4CCOCC4)cc3)c2n1` [Compound I-363, 2-(2-isopropylphenyl)-9-(4-(morpholine-4-carbonyl)benzyl)-7,9-dihydro-8H-purin-8-one] yielded an IC50 of 0.05 to 0.2 µM.
In the case of `CC(C)c1ccccc1-c1ncc2[nH]c(=O)n(Cc3ccc(C(=O)N(C)C4CCCCC4)cc3)c2n1` [Compound I-364, N-cyclohexyl-4-((2-(2-isopropylphenyl)-8-oxo-7,8-dihydro-9H-purin-9-yl)methyl)-N-methylbenzamide], the IC50 is reported as less than 0.05 µM.
Work on `CC(C)c1ccccc1-c1ncc2[nH]c(=O)n(Cc3ccc(C(=O)N(C)Cc4ccc(F)cc4)cc3)c2n1` [Compound I-365, N-(4-fluorobenzyl)-4-((2-(2-isopropylphenyl)-8-oxo-7,8-dihydro-9H-purin-9-yl)methyl)-N-methylbenzamide] yielded an IC50 of 0.05 to 0.2 µM.
`CC1CCN(C(=O)c2ccc(Cn3c(=O)[nH]c4cnc(-c5ccccc5C(C)C)nc43)cc2)CC1` [Compound I-366, 2-(2-isopropylphenyl)-9-(4-(4-methylpiperidine-1-carbonyl)benzyl)-7,9-dihydro-8H-purin-8-one] showed an IC50 of 0.05 to 0.2 µM.
`CC(C)c1ccccc1-c1ncc2[nH]c(=O)n(Cc3ccc(C(=O)N(C)C4CCOCC4)cc3)c2n1` [Compound I-367, 4-((2-(2-isopropylphenyl)-8-oxo-7,8-dihydro-9H-purin-9-yl)methyl)-N-methyl-N-(tetrahydro-2H-pyran-4-yl)benzamide] gave an IC50 of 0.05 to 0.2 µM.
With `COCC1CCCN(C(=O)c2ccc(Cn3c(=O)[nH]c4cnc(-c5ccccc5C(C)C)nc43)cc2)C1` (stereo not shown) [Compound I-368, 2-(2-isopropylphenyl)-9-(4-(3-(methoxymethyl)piperidine-1-carbonyl)benzyl)-7,9-dihydro-8H-purin-8-one] the IC50 was 0.05 to 0.2 µM.
`CC(C)c1ccccc1-c1ncc2[nH]c(=O)n(Cc3ccc(C(=O)N4CCC[C@H]4C)cc3)c2n1` [Compound I-369, (R)-2-(2-isopropylphenyl)-9-(4-(2-methylpyrrolidine-1-carbonyl)benzyl)-7,9-dihydro-8H-purin-8-one] was tested, and the IC50 was less than 0.05 µM.
`COCCN(C(=O)c1ccc(Cn2c(=O)[nH]c3cnc(-c4ccccc4C(C)C)nc32)cc1)C(C)C` [Compound I-370, N-isopropyl-4-((2-(2-isopropylphenyl)-8-oxo-7,8-dihydro-9H-purin-9-yl)methyl)-N-(2-methoxyethyl)benzamide] gave an IC50 of 0.05 to 0.2 µM.
`Cc1nc(CN(C)C(=O)c2ccc(Cn3c(=O)[nH]c4cnc(-c5ccccc5C(C)C)nc43)cc2)cs1` [Compound I-371, 4-((2-(2-isopropylphenyl)-8-oxo-7,8-dihydro-9H-purin-9-yl)methyl)-N-methyl-N-((2-methylthiazol-4-yl)methyl)benzamide] gave an IC50 of 0.05 to 0.2 µM.
Molecule `CC(C)c1ccccc1-c1ncc2[nH]c(=O)n(Cc3ccc(C(=O)Nc4nccn4C)cc3)c2n1` [Compound I-372, 4-((2-(2-isopropylphenyl)-8-oxo-7,8-dihydro-9H-purin-9-yl)methyl)-N-(1-methyl-1H-imidazol-2-yl)benzamide] has an IC50 of 0.05 to 0.2 µM.
`CCN(C)C(=O)c1ccc(Cn2c(=O)[nH]c3cnc(-c4ccccc4C(C)C)nc32)cc1` [Compound I-373, N-ethyl-4-((2-(2-isopropylphenyl)-8-oxo-7,8-dihydro-9H-purin-9-yl)methyl)-N-methylbenzamide] was tested, and the IC50 was less than 0.05 µM.
In the case of `CCCN(C)C(=O)c1ccc(Cn2c(=O)[nH]c3cnc(-c4ccccc4C(C)C)nc32)cc1` [Compound I-374, 4-((2-(2-isopropylphenyl)-8-oxo-7,8-dihydro-9H-purin-9-yl)methyl)-N-methyl-N-propylbenzamide], the IC50 is reported as less than 0.05 µM.
For `CC(C)c1ccccc1-c1ncc2[nH]c(=O)n(Cc3ccc(C(=O)N(C)C(C)C)cc3)c2n1` [Compound I-375, N-isopropyl-4-((2-(2-isopropylphenyl)-8-oxo-7,8-dihydro-9H-purin-9-yl)methyl)-N-methylbenzamide], the IC50 was less than 0.05 µM.
Work on `CC(C)c1ccccc1-c1ncc2[nH]c(=O)n(Cc3ccc(C(=O)N(C)CCO)cc3)c2n1` [Compound I-376, N-(2-hydroxyethyl)-4-((2-(2-isopropylphenyl)-8-oxo-7,8-dihydro-9H-purin-9-yl)methyl)-N-methylbenzamide] yielded an IC50 of 0.2 to 2 µM.
Work on `CC(C)c1ccccc1-c1ncc2[nH]c(=O)n(Cc3ccc(C(=O)N4CC(O)C4)cc3)c2n1` [Compound I-377, 9-(4-(3-hydroxyazetidine-1-carbonyl)benzyl)-2-(2-isopropylphenyl)-7,9-dihydro-8H-purin-8-one] yielded an IC50 greater than 2 µM.
Work on `CC(C)c1ccccc1-c1ncc2[nH]c(=O)n(Cc3ccc(C(=O)N4CC[C@H](O)C4)cc3)c2n1` [Compound I-378, (S)-9-(4-(3-hydroxypyrrolidine-1-carbonyl)benzyl)-2-(2-isopropylphenyl)-7,9-dihydro-8H-purin-8-one] yielded an IC50 of 0.2 to 2 µM.
`CC(C)c1ccccc1-c1ncc2[nH]c(=O)n(Cc3ccc(C(=O)N(C)C4CC4)cc3)c2n1` [Compound I-379, N-cyclopropyl-4-((2-(2-isopropylphenyl)-8-oxo-7,8-dihydro-9H-purin-9-yl)methyl)-N-methylbenzamide] showed an IC50 of less than 0.05 µM.
Work on `CC(C)c1ccccc1-c1ncc2[nH]c(=O)n(Cc3ccc(C(=O)N(C)CC(=O)N(C)C)cc3)c2n1` [Compound I-380, N-(2-(dimethylamino)-2-oxoethyl)-4-((2-(2-isopropylphenyl)-8-oxo-7,8-dihydro-9H-purin-9-yl)methyl)-N-methylbenzamide] yielded an IC50 of 0.05 to 0.2 µM.
`CC(C)c1ccccc1-c1ncc2[nH]c(=O)n(Cc3ccc(C(=O)NC4COC4)cc3)c2n1` [Compound I-381, 4-((2-(2-isopropylphenyl)-8-oxo-7,8-dihydro-9H-purin-9-yl)methyl)-N-(oxetan-3-yl)benzamide] gave an IC50 of 0.2 to 2 µM.
With `CC(C)c1ccccc1-c1ncc2[nH]c(=O)n(Cc3ccc(C(=O)N4CCC[C@H]4CO)cc3)c2n1` [Compound I-382, (S)-9-(4-(2-(hydroxymethyl)pyrrolidine-1-carbonyl)benzyl)-2-(2-isopropylphenyl)-7,9-dihydro-8H-purin-8-one] the IC50 was 0.2 to 2 µM.
